Read-outs that look alike come from different tables or passages of the source. Each block holds one molecule with its values, some of them ahead of it.
Assays:
Cdk2 [1] = target: T1, Cdk2 (Homo sapiens, UniProt P24941, A93C/C118A/C177S/R157C)
cells = details: cited from earlier work
pCdk4:cyclinD = pCdk4:cyclinD (Homo sapiens, UniProt P11802); experiment: γ-33P radioactivity kinase assay with RB as substrate and 10 μM ATP; type: biochemical
Cdk2 [2] = target: T1, Cdk2; type: binding
Cdk2 [3] = test system: Cdk2; parameters: species or system Human
Cdk2 [4] = target: Cdk2 (Homo sapiens, UniProt P24941, A93C/C118A/C177S/S46C)

Sequence of pCdk4:cyclinD (P11802 whole entry): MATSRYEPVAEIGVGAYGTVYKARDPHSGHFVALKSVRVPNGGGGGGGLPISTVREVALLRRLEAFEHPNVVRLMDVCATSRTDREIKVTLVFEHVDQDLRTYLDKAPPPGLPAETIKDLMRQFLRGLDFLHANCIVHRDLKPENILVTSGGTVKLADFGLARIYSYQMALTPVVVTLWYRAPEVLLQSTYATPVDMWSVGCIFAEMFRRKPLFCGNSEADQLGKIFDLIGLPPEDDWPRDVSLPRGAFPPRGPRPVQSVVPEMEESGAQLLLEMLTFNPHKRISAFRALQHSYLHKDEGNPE
Sequence of pCdk4:cyclinD (P24385 whole entry partner): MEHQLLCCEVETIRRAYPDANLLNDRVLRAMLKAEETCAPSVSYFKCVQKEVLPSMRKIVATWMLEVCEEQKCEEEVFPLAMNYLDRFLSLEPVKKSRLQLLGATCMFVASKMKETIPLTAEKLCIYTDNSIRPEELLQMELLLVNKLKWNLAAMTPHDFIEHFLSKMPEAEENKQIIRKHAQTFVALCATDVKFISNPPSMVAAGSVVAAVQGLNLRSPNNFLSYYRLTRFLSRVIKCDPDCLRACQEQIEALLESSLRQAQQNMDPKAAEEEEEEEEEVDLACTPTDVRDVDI

- effect on the Aloop-in/out equilibrium (FRET) (Cdk2 [2]; Fig. 4d): did not promote the Aloop-out state
Structure (SMILES): CC(=O)c1c(C)c2cnc(Nc3ccc(N4CCNCC4)cn3)nc2n(C2CCCC2)c1=O [palbociclib]
- binding cooperativity with cyclin (in words) (Cdk2 [2]; Fig. 4d, cyclinA): lacked substantial binding cooperativity with cyclin

- effect on the Aloop-in/out equilibrium (FRET) (Cdk2 [2]): did not promote the Aloop-out state
Structure (SMILES): CN(C)C(=O)c1cc2cnc(Nc3ccc(N4CCNCC4)cn3)nc2n1C1CCCC1 [ribociclib]
- binding cooperativity with cyclin (in words) (Cdk2 [2]): lacked substantial binding cooperativity with cyclin

Continued, molecule first:

Structure (SMILES): Nc1ncnc2c1ncn2[C@@H]1O[C@H](COP(=O)(O)OP(=O)(O)O)[C@@H](O)[C@H]1O [ADP]
- conformational effect on the A-loop (DEER) (Cdk2 [1]; monomeric Cdk2, inhibitor 250 µM): promoted the Aloop-out state

Structure (SMILES): CCN1CCN(Cc2ccc(Nc3ncc(F)c(-c4cc(F)c5nc(C)n(C(C)C)c5c4)n3)nc2)CC1 [abemaciclib]
- Cdk1 substrate phosphorylation in cells (cells): blocks Cdk1 substrate phosphorylation
- cell cycle effect in cells (cells): triggers a G2 arrest
- potency for Cdk4 compared with palbociclib or ribociclib (pCdk4:cyclinD): greater potency

Structure (SMILES): CN1CC[C@H](c2c(O)cc(O)c3c(=O)cc(-c4ccccc4Cl)oc23)[C@H](O)C1 [flavopiridol]
- binding cooperativity between inhibitor and cyclin (Cdk2 [2]): 50 fold
- conformational effect on the A-loop (DEER) (Cdk2 [3]): promoted the Aloop-out2 subpopulation
- conformational effect on the A-loop (DEER) (Cdk2 [1]): increased the Aloop-out1 subpopulation
- conformational effect on the αC-helix (DEER) (Cdk2 [4]): population shifts toward the αC-in state
